In patent US20250381168A1, “VLA4 INHIBITORS AND USES THEREOF” (Washington University, priority 2022, published 2025):
Like-named read-outs stand apart in the source and are kept apart here.

Columns and labels:
integrin a4b7 = integrin a4b7 (Homo sapiens (Human), UniProt P13612+P26010); experiment: a4b7 solid phase receptor assay (SPRA); settings: recombinant human a4b7 binding to plate-coated human VCAM1 (TABLE 4)
Experimental: Wells were washed 3 times with TBS+ and blocking buffer (TBS+ with 1% bovine serum albumin), the plate was incubated for 1 hr at 37° C., and then washed 3× with TBS+ buffer. Recombinant human a4b7 (R & D Systems) was diluted to 1 μg/ml in TBS+/0.1% bovine serum albumin. Test compounds were diluted into the integrin solution and added to the washed ligand-coated plate according to a standard template with each sample repeated in triplicate. After incubation for 2 hr at room temperature, the plate was washed 3× with 150 μl of TBS+ buffer. To each well, biotinylated anti-A4 antibody (R & D Systems) at 1 μg/ml in TBS+/0.1% BSA was added and the plate covered and incubated for 1 hr at room temperature. After washing the plate 3× with TBS+ buffer, streptavidin-conjugated horseradish peroxidase (R & D Systems) diluted in TBS+ blocking buffer was added to the wells and the plate incubated for 20 min at room temperature. The plate was washed 3× with TBS+ buffer followed by addition of 50 μl of TMB substrate (Sigma T4444). After incubation for 20 min at room temperature, plates were stopped with TMB stop solution (Sigma S5689) by colorimetric detection at 450 nm wavelength using a Tecan Safire II plate reader.

VLA-4 (a4b1) = VLA-4 (a4b1) (Homo sapiens (Human), UniProt P05556+P13612); experiment: sVCAM flow cytometry cell-based assay (inhibition of soluble VCAM-1 binding to G2 ALL cells);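 also: compounds at 0.1 to 1000 nM preincubated 30 min with G2 ALL cells, then VCAM/Fc added for 30 min, bound VCAM-1 detected by PE secondary antibody, percent binding cells by flow cytometry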
Sequence of VLA-4 (a4b1) (P13612 34-1032): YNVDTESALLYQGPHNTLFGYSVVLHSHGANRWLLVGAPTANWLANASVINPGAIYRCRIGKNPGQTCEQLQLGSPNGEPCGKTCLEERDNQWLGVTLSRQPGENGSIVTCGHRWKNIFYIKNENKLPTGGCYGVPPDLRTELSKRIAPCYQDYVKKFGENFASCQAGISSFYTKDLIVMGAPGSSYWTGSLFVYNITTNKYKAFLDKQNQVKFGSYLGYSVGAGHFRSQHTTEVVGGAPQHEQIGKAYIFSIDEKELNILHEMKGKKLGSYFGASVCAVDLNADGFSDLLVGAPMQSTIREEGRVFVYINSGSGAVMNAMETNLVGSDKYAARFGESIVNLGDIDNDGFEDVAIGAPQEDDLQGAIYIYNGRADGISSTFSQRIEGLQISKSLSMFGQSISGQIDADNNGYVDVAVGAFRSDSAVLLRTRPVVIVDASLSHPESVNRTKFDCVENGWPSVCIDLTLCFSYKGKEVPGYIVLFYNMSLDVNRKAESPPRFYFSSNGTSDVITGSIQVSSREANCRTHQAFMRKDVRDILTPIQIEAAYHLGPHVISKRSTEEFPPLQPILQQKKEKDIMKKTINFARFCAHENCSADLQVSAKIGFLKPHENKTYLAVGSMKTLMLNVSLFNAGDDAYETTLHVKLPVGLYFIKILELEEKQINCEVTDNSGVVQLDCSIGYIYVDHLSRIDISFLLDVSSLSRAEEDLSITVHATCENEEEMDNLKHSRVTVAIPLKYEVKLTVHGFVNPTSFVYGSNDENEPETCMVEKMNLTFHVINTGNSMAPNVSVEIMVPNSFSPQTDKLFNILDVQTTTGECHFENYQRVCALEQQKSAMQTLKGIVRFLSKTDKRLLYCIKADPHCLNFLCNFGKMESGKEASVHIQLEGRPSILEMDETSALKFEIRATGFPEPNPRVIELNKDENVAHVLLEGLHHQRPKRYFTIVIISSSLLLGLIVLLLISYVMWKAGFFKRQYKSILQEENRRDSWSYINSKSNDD
Sequence of VLA-4 (a4b1) (P05556 21-798): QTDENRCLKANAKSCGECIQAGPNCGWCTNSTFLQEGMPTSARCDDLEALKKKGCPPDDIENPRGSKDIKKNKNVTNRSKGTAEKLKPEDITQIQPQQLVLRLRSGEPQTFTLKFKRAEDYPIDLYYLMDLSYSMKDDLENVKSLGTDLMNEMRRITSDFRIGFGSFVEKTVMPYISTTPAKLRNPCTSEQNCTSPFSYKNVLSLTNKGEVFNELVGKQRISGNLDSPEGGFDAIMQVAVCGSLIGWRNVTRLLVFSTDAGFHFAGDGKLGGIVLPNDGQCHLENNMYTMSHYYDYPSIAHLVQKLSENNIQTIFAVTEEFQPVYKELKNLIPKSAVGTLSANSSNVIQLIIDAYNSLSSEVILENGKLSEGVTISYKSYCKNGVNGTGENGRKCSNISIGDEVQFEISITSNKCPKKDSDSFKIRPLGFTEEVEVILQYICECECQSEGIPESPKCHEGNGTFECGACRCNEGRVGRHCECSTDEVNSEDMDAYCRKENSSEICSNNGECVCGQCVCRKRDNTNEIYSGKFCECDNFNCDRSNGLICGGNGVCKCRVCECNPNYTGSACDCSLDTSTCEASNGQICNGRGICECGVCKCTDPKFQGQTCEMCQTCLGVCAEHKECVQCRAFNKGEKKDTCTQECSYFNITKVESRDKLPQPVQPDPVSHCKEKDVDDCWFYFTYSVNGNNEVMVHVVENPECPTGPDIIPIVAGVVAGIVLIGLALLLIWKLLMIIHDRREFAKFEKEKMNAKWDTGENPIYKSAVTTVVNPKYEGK
Experimental: VLA-4 (a4b1) inhibitor compounds were tested for their ability to inhibit the binding of soluble VCAM-1 to human G2 acute lymphoblastic leukemia (ALL) cells. Briefly, G2 ALL cells are pre-incubated with increasing concentrations (0.1 to 1000 nM) of compounds for 30 minutes. Soluble VCAM/Fc chimera protein (R & D systems) is then added to the mixture and the cells incubated for an additional 30 minutes. Afterwards, cells are washed and VCAM-1 is detected using a PE-conjugated secondary polyclonal antibody. In each experiment, an aliquot of cells are stained with isotype control antibodies to serve as a negative control. The percentage of VCAM-1 binding cells was then determined by flow cytometry.

[1] = system: hematopoietic stem/progenitor cells (HSPCs); experiment: HSPC mobilization into peripheral blood, colony forming unit (CFU) assay; settings: mice
[2] = as listed in TABLE 9, read-out: sVCAM IC50
[3] = as listed in TABLE 10, read-out: sVCAM IC50
[4] = inhibition of sVCAM-1 binding to human G2 ALL cells (TABLE 3), read-out: SVCAM-1, IC50
[5] = single dose, peripheral blood, 2 hr post dose (TABLE 9)
[6] = single dose, peripheral blood, 2 hr post dose (TABLE 10)
[7] = single dose, peripheral blood, 4 hr post dose (TABLE 9)
[8] = single dose, peripheral blood, 4 hr post dose (TABLE 10)
[9] = single dose, peripheral blood, 6 hr post dose (TABLE 9)
[10] = single dose, peripheral blood, 6 hr post dose (TABLE 10)

Sequence of integrin a4b7 (P13612 34-970): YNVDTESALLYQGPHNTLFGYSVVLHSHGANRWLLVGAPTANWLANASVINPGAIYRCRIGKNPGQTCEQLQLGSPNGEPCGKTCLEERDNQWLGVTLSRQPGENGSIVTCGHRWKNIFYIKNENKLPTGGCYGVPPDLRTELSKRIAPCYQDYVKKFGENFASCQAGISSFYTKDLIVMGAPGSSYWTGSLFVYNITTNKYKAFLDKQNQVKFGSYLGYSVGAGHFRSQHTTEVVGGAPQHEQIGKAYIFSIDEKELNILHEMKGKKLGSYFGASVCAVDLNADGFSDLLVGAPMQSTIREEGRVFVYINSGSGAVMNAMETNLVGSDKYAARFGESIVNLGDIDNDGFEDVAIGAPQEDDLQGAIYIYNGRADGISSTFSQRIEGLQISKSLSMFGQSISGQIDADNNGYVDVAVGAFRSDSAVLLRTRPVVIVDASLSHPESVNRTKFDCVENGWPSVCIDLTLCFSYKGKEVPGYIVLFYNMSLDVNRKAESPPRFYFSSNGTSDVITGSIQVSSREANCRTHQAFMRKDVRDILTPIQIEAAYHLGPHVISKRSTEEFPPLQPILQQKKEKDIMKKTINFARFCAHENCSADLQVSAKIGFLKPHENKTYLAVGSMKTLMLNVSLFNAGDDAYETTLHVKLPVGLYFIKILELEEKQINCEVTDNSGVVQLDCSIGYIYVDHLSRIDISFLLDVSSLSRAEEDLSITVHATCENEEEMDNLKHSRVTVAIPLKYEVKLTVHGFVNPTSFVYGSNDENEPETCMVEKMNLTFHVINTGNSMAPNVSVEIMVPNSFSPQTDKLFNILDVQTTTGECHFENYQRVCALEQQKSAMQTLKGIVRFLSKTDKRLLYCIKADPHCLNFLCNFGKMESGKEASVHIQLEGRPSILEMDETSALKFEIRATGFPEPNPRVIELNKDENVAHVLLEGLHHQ
Sequence of integrin a4b7 (P26010 20-723): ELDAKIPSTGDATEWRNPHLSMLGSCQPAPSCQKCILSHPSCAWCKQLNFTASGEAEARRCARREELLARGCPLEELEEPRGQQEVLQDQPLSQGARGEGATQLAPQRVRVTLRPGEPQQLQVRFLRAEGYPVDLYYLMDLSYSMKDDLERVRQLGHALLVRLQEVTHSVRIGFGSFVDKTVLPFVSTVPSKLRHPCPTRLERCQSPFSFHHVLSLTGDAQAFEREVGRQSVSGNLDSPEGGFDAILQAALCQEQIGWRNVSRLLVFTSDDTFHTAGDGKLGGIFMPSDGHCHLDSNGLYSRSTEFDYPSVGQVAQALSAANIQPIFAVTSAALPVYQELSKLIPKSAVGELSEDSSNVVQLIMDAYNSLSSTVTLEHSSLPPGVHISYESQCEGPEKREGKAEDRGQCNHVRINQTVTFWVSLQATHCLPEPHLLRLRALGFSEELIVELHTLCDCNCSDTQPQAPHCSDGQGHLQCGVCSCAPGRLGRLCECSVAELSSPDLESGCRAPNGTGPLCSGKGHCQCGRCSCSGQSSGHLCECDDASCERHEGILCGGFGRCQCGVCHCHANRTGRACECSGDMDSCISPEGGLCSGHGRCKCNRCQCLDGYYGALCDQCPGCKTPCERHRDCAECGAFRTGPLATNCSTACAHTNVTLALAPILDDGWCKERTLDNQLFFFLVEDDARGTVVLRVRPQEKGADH

Compound: COCCOCCOCCOCCOCCOCCOCCOCCOCCOCCOCCOCCOCCOCCOCCOCCOCCOCCOCCOCCOCCOCCOCCOCCOCc1cc(OC)c(-c2ccc(C[C@H](NC(=O)[C@@H]3CCCN3S(=O)(=O)c3cc(Cl)cc(Cl)c3)C(=O)O)cc2)c(OC)c1 [Example 1]
- IC50 (integrin a4b7): 5.6 nM
- IC50 (VLA-4 (a4b1); as listed in TABLE 7, read-out: sVCAM IC50): 0.373 nM
- IC50 (VLA-4 (a4b1); as listed in TABLE 8, read-out: sVCAM IC50): 0.373 nM
- IC50 (VLA-4 (a4b1); [2]): 0.373 nM
- IC50 (VLA-4 (a4b1); [3]): 0.373 nM
- IC50 (VLA-4 (a4b1); as listed in TABLE 11, read-out: sVCAM IC50): 0.373 nM
- IC50 (VLA-4 (a4b1); as listed in TABLE 12, read-out: sVCAM IC50): 0.373 nM
- IC50 (VLA-4 (a4b1); as listed in TABLE 14, read-out: sVCAM IC50): 0.373 nM
- IC50 (VLA-4 (a4b1); as listed in TABLE 15, read-out: sVCAM IC50): 0.373 nM
- IC50 (VLA-4 (a4b1); as listed in TABLE 17, read-out: sVCAM IC50): 0.373 nM
- IC50 (VLA-4 (a4b1); as listed in TABLE 18, read-out: sVCAM IC50): 0.373 nM
- IC50 (VLA-4 (a4b1); [4]): 0.373 nM
- HSPC mobilization in the triple combination regimen with plerixafor and truncated Groβ [1]: high degree of extended mobilization
- No. CFU (×10^3)/mL ± SD, 2 hr ([1]; alone or in combination with Plerixafor and tGroβ, peripheral blood, 2 hr (TABLE 17)): 5.69 ± 2.57 (×10^3)/mL
- No. CFU (×10^3)/mL ± SD, 4 hr ([1]; alone or in combination with Plerixafor and tGroβ, peripheral blood, 4 hr (TABLE 17)): 4.82 ± 1.07 (×10^3)/mL
- No. CFU (×10^3)/mL ± SD, 6 hr ([1]; alone or in combination with Plerixafor and tGroβ, peripheral blood, 6 hr (TABLE 17)): 2.97 ± 0.65 (×10^3)/mL
- HSPC mobilization, result in words ([1]; single dose): significant HSPC mobilization at 4 hours
- No. CFU (×10^3)/mL ± SD, 2 hr ([1]; single dose alone or in combination with AMD3100 (5 mg/kg s.c.), peripheral blood, 2 hr (TABLE 14)): 5.94 ± 4.52 (×10^3)/mL
- No. CFU (×10^3)/mL ± SD, 3 hr ([1]; single dose alone or in combination with AMD3100 (5 mg/kg s.c.), peripheral blood, 3 hr (TABLE 14)): 6.42 ± 4.64 (×10^3)/mL
- No. CFU (×10^3)/mL ± SD, 5 hr ([1]; single dose alone or in combination with AMD3100 (5 mg/kg s.c.), peripheral blood, 5 hr (TABLE 14)): 5.02 ± 1.67 (×10^3)/mL
- No. CFU (x10^3)/mL ± SD, 4 hr ([1]; single dose alone or in combination with Plerixafor (5 mg/kg s.c.), peripheral blood, 4 hr (TABLE 15)): 2.65 ± 1.15 (x10^3)/mL
- No. CFU (x10^3)/mL ± SD, 6 hr ([1]; single dose alone or in combination with Plerixafor (5 mg/kg s.c.), peripheral blood, 6 hr (TABLE 15)): 1.43 ± 0.56 (x10^3)/mL
- No. CFU (x10^3)/mL ± SD, 24 hr ([1]; single dose alone or in combination with Plerixafor (5 mg/kg s.c.), peripheral blood, 24 hr (TABLE 15)): 0.22 ± 0.10 (x10^3)/mL
- effect on extended HSPC mobilization in combination with a single dose of the CXCR4 inhibitor AMD3100 (Plerixafor) ([1]; single dose of each agent): synergistic effects
- No. CFU (×10^3)/mL ± SD, 0.25 hr ([1]; single dose, peripheral blood, 0.25 hr post dose (TABLE 8)): 4.10 ± 1.53 (×10^3)/mL
- No. CFU (×10^3)/mL ± SD, 0.5 hr ([1]; single dose, peripheral blood, 0.5 hr post dose (TABLE 7)): 1.22 ± 0.35 (×10^3)/mL
- No. CFU (×10^3)/mL ± SD, 2 hr ([1]; single dose, peripheral blood, 2 hr post dose (TABLE 7)): 2.12 ± 1.04 (×10^3)/mL
- No. CFU (×10^3)/mL ± SD, 2 hr ([1]; single dose, peripheral blood, 2 hr post dose (TABLE 8)): 4.79 ± 2.05 (×10^3)/mL
- No. CFU (×10^3)/mL ± SD, 2 hr [1, 5]: 4.72 ± 1.19 (×10^3)/mL
- No. CFU (×10^3)/mL ± SD, 2 hr [1, 6]: 4.18 ± 1.99 (×10^3)/mL
- No. CFU (x10^3)/mL ± SD, 2 hr ([1]; single dose, peripheral blood, 2 hr post dose (TABLE 11)): 3.14 ± 0.63 (x10^3)/mL
- No. CFU (×10^3)/mL ± SD, 4 hr ([1]; single dose, peripheral blood, 4 hr post dose (TABLE 7)): 2.30 ± 0.25 (×10^3)/mL
- No. CFU (×10^3)/mL ± SD, 4 hr ([1]; single dose, peripheral blood, 4 hr post dose (TABLE 8)): 4.43 ± 0.66 (×10^3)/mL
- No. CFU (×10^3)/mL ± SD, 4 hr [1, 7]: 5.00 ± 1.26 (×10^3)/mL
- No. CFU (×10^3)/mL ± SD, 4 hr [1, 8]: 4.41 ± 0.89 (×10^3)/mL
- No. CFU (x10^3)/mL ± SD, 4 hr ([1]; single dose, peripheral blood, 4 hr post dose (TABLE 11)): 4.14 ± 1.31 (x10^3)/mL
- No. CFU (×10^3)/mL ± SD, 4 hr ([1]; single dose, peripheral blood, 4 hr post dose (TABLE 18)): 5.18 ± 1.99 (×10^3)/mL
- No. CFU (×10^3)/mL ± SD, 6 hr [1, 9]: 1.84 ± 0.63 (×10^3)/mL
- No. CFU (×10^3)/mL ± SD, 6 hr [1, 10]: 1.78 ± 0.38 (×10^3)/mL
- No. CFU (x10^3)/mL ± SD, 6 hr ([1]; single dose, peripheral blood, 6 hr post dose (TABLE 11)): 2.20 ± 0.63 (x10^3)/mL
- No. CFU (×10^3)/mL ± SD, 8 hr ([1]; single dose, peripheral blood, 8 hr post dose (TABLE 18)): 2.00 ± 0.66 (×10^3)/mL
- No. CFU (x10^3)/mL ± SD, 24 hr ([1]; single dose, peripheral blood, 24 hr post dose (TABLE 11)): 0.29 ± 0.11 (x10^3)/mL
- No. CFU (×10^3)/mL ± SD, 24 hr ([1]; single dose, peripheral blood, 24 hr post dose (TABLE 18)): 0.46 ± 0.30 (×10^3)/mL
- No. CFU (x10^3)/mL ± SD, 2 hr ([1]; single injection, peripheral blood, 2 hr post dose (TABLE 12)): 4.72 ± 0.33 (x10^3)/mL
- No. CFU (x10^3)/mL ± SD, 4 hr ([1]; single injection, peripheral blood, 4 hr post dose (TABLE 12)): 3.38 ± 0.21 (x10^3)/mL
- No. CFU (x10^3)/mL ± SD, 6 hr ([1]; single injection, peripheral blood, 6 hr post dose (TABLE 12)): 2.87 ± 0.39 (x10^3)/mL
- No. CFU (x10^3)/mL ± SD, 8 hr ([1]; single injection, peripheral blood, 8 hr post dose (TABLE 12)): 1.12 ± 0.48 (x10^3)/mL

Compound: COCCOCCOCCOCCOCCOCCOCCOCCOCCOCCOCCOCCOCCOCCOCCOCCOCCOCCOCCOCCOCCOCCOCCOCCOCCOCCOCCOCCOCCOCCOCCOCCOCCOCCOCCOCCOCc1cc(OC)c(-c2ccc(C[C@H](NC(=O)[C@@H]3CCCN3S(=O)(=O)c3cc(Cl)cc(Cl)c3)C(=O)O)cc2)c(OC)c1 [Example 2]
- IC50 (integrin a4b7): 5.4 nM
- IC50 (VLA-4 (a4b1); [2]): 0.833 nM
- IC50 (VLA-4 (a4b1); [3]): 0.833 nM
- IC50 (VLA-4 (a4b1); [4]): 0.833 nM
- No. CFU (×10^3)/mL ± SD, 2 hr [1, 5]: 4.10 ± 1.40 (×10^3)/mL
- No. CFU (×10^3)/mL ± SD, 2 hr [1, 6]: 4.42 ± 1.41 (×10^3)/mL
- No. CFU (×10^3)/mL ± SD, 4 hr [1, 7]: 4.98 ± 1.88 (×10^3)/mL
- No. CFU (×10^3)/mL ± SD, 4 hr [1, 8]: 3.59 ± 0.93 (×10^3)/mL
- No. CFU (×10^3)/mL ± SD, 6 hr [1, 9]: 1.87 ± 0.58 (×10^3)/mL
- No. CFU (×10^3)/mL ± SD, 6 hr [1, 10]: 2.12 ± 0.84 (×10^3)/mL
